Data: patent US20020049157A1, “Use of proteasome inhibitors for treating cancer, inflammation, autoimmune disease, graft rejection and septic shock” (priority 1998, published 2002)

How the values were obtained:
[1] = test system: C57BL/6 spleen cells; test: Mixed lymphocyte culture (MLR), alloantigen-specific response; assay type: cell-based, mouse; conditions: MLR treated on day 2 with LAC 8 μM for 3 h; restimulated after 8 days
Experimental: The C57BL/6 spleen cells (H-2^b) were stimulated with mitomycin c-treated BALB/c spleen cells (H-2^d). On day 2 when most of the H-2^d-specific cells were activated, the mixed lymphocyte culture (MLR) was treated with lactacystin (LAC, 8 μM) for 3 h. After wash, the cells were put back in culture for additional 8 days, and then stimulated with either fresh BALB/c or C3H (H-2^k) spleen cells. […] The difference is more pronounced in day three of the culture.
It is therefore an embodiment of this invention to use proteasome inhibitors, particularly lactacystin in transplantation and autoimmune diseases where certain undesirable activated T cells can be repressed or eliminated and the rest of the T cell population is generally unaffected by such inhibitors.

[2] = test system: ICAM-1; test: ICAM-1 expression on 2C TCR transgenic lymph node T cells (flow cytometry); assay type: cell-based, mouse; conditions: Con A plus 10 μM lactacystin; 24 h and 48 h
Experimental: After 24 h and 48 h, the cells were examined for ICAM-1 expression by flow cytometry, using FITC-anti-ICAM-1/1B2-PE. Monoclonal Ab 1B2 recognize a clonotypic determinant on the TCR of the transgenic T cells which are largely CD8 positive (>75%).
Cell-cell interaction is essential in antigen presentation and in T cell's help to T and B cells. The adhesion molecules are necessary to establish the cell-cell interaction. Blocking the adhesion molecules ICAM-1 and LFA-1 is known to inhibit immune responses and to suppress graft rejection. […] Therefore, inhibition of the proteasome activity will be a useful way to control undesirable immune responses during graft rejection, autoimmune diseases, and inflammation.

[3] = test system: mouse peritoneal exudate macrophages; test: LPS-induced nitric oxide production by macrophages (nitrite, Griess reagent); assay type: cell-based; conditions: 2 μg/ml LPS; lactacystin at different concentrations
Experimental: Nitric oxide production by the macrophages was measured according to the […] concentrations in the supernatants.
BALB/c mice were injected i.p. with 3 ml of 3% thioglycollate broth. Three days later, peritoneal exudate macrophages of the mice were harvested and washed at 170 g for 10 min at 4° C. The macrophages were cultured in Teflon vials (2 cm in diameter) at 4×10^6/2 ml with various reagents (LPS, 2 μg/ml; IFNγ, 100 u/ml; LAC, 0.62-5 μM for the nitric oxide assay and 5 μM for the Northern blot assay).
The nitrite concentration in the culture supernatant was measured as a way to indirectly reflect the nitric oxide level following a method described by Ding et al (Ding et al., 1988, J. Immunology 141:2407). Release of reactive nitrogen intermediates and reactive oxygen intermediates form mouse peritoneal macrophages: comparison of activation cytokines and evidence for independent production. Briefly, 100 μl of supernatants collected from 48 h macrophage cultures was incubated with an equal volume of the Griess reagent (1% sulfanimide/0.1% naphthylethylene diamine dihydrochloride/2.5% H3PO4) at room temperature for 10 min in 96-well microtitration plates, the O.D. was measured at 550 nm. Sodium nitrite of various concentrations were used to construct standard curves.

[4] = test system: Bax, Bak and Bad; test: Immunoblotting of Bax, Bak and Bad in Jurkat cells; assay type: cell-based; conditions: lactacystin 6 μM
Experimental: Jurkat cells were treated with lactacystin (6 μM) for 5 h (lanes 2 and 4 of panel A), 4 h (lane 2 of panel B) or 7 h (lane 3 of panel B), lane 1 in panels A and B is untreated control samples. The cells were separated into mitochondrial (mito in panel A and mitochondria in panel B) and cytosolic (cytosol in panel A) fractions, and the lysate of these two fractions analyzed by immunoblotting using goat anti-Bik, and rabbit anti-Bax, Bak and Bad Ab (all from Santa Cruz Biotech, Santa Cruz, Calif.) followed by enhanced chemiluminescence (ECL, kit from Amersham).

[5] = test system: Peripheral blood T cells; test: Mitogen-stimulated T cell proliferation (3H-thymidine uptake); assay type: cell-based, human; conditions: for inhibition of subsequent PHA-stimulated proliferation after preincubation and wash: 10 μM LAC; for inhibition of T cell proliferation (3H-thymidine uptake): LAC added at 0 h
Experimental: Lymphocytes were stimulated with various mitogens as indicated, and LAC at different concentrations was added at the beginning of the cultures. The cells were pulsed with 3H-thymidine between 48 h and 64 h. Samples were in triplicates. All the experiments were performed at least three times and similar results were obtained. Representative results are shown.
A: Peripheral blood T cells stimulated with PHA (2 μg/ml).
B: Peripheral blood T cells stimulated with OKT3 (50 ng/ml).
C: Peripheral blood T cells stimulated with anti-CD28 (50 ng/ml) plus ionomycin (1 μg/ml).
A. The rapid effect of LAC Peripheral blood T cells were pretreated with 10 μM LAC in culture medium or in culture medium alone for 3 h or 16 h. The cells were then washed and recultured in the presence of 2 μg/ml PHA for 64 h. The cells were pulsed with ^3H-thymidine for 16 h before they were harvested at 64 h. Samples were in triplicates.
C and D. LAC blocks the S phase entry of the mitogen-stimulated peripheral blood T cells Peripheral blood T cells were stimulated with PHA (2 μ/ml) in the absence or presence of LAC (10 μM, added at 0 h, 16 h, 24 h, or 40 h, as indicated in the bottom of the panels). For the flow cytometry analysis of the cell cycle progress, the cells were harvested at 0 h, 1 6 h, 40 h and 64 h as indicated on the top of the panels (FIG. 6C). For ^3H-thymidine uptake, the triplicated cell samples were pulsed at 48 h and harvested at 64 h (FIG. 6D).
The role of proteasome in T cell activation and proliferation was first examined in PBMC, using the proteasome-specific inhibitor LAC. The PBMC were activated with various stimulants. LAC was added to the cells in the beginning of the culture (0 h) along with the stimulants. ^3H-thymidine uptake between 48 h and 64 h of 64 h cultures was used as a parameter for cell proliferation. […] Rather, it likely affects certain downstream events governing a more general process(es) in lymphocyte activation and proliferation.
We next investigated how fast and how long LAC could exert its effects on the lymphocytes, since this information is necessary to assess the requirement of the proteasome activity for events related to cell activation and proliferation. The cells were then washed and recultured in the presence of PHA. The thymidine uptake was measured 3 days later.
Peripheral blood mononuclear cells (PBMC) and tonsillar T cells were prepared as described before (Luo et al., 1992, Transplantation 53:1071; Luo et al., 1993, Clin. & Exp. Immunol. 94:371). The cells were cultured in RPMI 1640 supplemented with 10% FCS, L-glutamine and antibiotics. ^3H-thymidine uptake was carried out as described previously (Luo et al., 1992, supra; Luo et al., 1993, supra).

CC(=O)N[C@@H](CSC(=O)[C@]1([C@@H](O)C(C)C)NC(=O)[C@H](C)[C@@H]1O)C(=O)O [LAC, lactacystin]
response to restimulation with BALB/c cells [1]: failed to respond to the BALB/c cells
response to restimulation with third party C3H cells [1]: respond well to third party C3H
upregulation of ICAM-1 on CD8 positive T cells [2]: effectively block the upregulation of ICAM-1
LPS-induced NO production [3]: effectively repress
amounts of Bax, Bak and Bad [4]: does not appear to have altered
inhibition of subsequent PHA-stimulated proliferation after preincubation and wash ([5]; 3 h preincubation): significant inhibition
inhibition of subsequent PHA-stimulated proliferation after preincubation and wash ([5]; 16 h preincubation, compared with 3 h): more effective
inhibition of T cell proliferation (3H-thymidine uptake) ([5]; Ca++ ionophore plus cross-linking of CD28): strongly and dose-dependently inhibited
extent of inhibition of T cell proliferation ([5]; LAC at 5 μM, PHA, anti-CD3, anti-CD28 plus ionomycin systems): near-to-maximal inhibition
inhibition of 3H-thymidine uptake ([5]; PHA, LAC 10 μM added as late as 40 h, pulsed 48 h, harvested 64 h): strongly inhibitory
inhibition of T cell proliferation (3H-thymidine uptake) ([5]; crosslinking TCR with anti-CD3): strongly and dose-dependently inhibited
inhibition of T cell proliferation (3H-thymidine uptake) ([5]; induced by PHA, uptake 48-64 h): strongly and dose-dependently inhibited
